One assay deals with rat adipose cells. Briefly: Glucose transport in adipose cells. Format: cell-based. Here is the method:
The biological activity of the peptides were measured by their effect on glucose uptake in rat adipose cells as described (Stagsted et al. (1991) J. Biol. Chem. 266:12844-12847). Briefly, rat adipose cells were obtained from epididymal fat pads and suspended in Krebs-Ringer HEPES buffer (KRH) with 5% bovine serum albumin at a lipocrit of 10% (final). […] Most of the peptides were not tested at higher concentrations than 30 μM.

In another assay the target is T1, human insulin receptor (Homo sapiens, UniProt P06213).
T1 construct: expressed in transfected cells; host or cells: HeLa cells, electroporated; pCR3 expression vector (Invitrogen, catalog no. K3000-01)
The assay is described as follows: Insulin receptor internalization in transfected HeLa cells. Format: cell-based. The settings on record: for effect on insulin receptor internalization (in words): transfected cells, 10 μM peptide. The method, then: Insulin Receptor modification and expression. […] K3000-01) was transfected by electroporation into HeLa cells. Methods of electroporation are described in Boggs et al. (1986) Ex. Hematol. 149:988-994. In the transfected cells the receptors show insulin dependent internalization.
Receptor internalization was performed essentially as described in Stagsted et al. (1990) Cell 62:297-307. […] The cells were then diluted with 50 μl of KRHB (pH7.2) (no acid wash) or 50 μl of KRHB (pH 2.0) (acid wash) and incubated on ice for 5 min. The cells were finally harvested by centrifugation on top of silicone oil, and both free and cell-associated radioactivity was measured.

For “GNEQSFRVDLRTLLRYAGGGNEQSFRVDLRTLLRYA [DS-A85]”, in the assay on rat adipose cells (insulin + 10 μM peptide (insulin alone 14±3 fold)), the “enhancement of glucose uptake” value is on record as 22±4 fold.

With “KTDSQILKELEESSFRKTFEDYLH [pepIR, human insulin receptor derived peptide]”, the “effect on glucose uptake (in words)” value with rat adipose cells (at maximal insulin stimulation) is reported as “did not significantly affect glucose uptake”. In addition, the “effect on insulin receptor internalization (in words)” value with human insulin receptor is listed as “inhibits receptor internalization to the same extent as DS-A85”.

For the substance TWLGRQGPEGPSSIPPGTLTTLW [GLUT4pep], in the assay with human insulin receptor (in the presence of 10 μM peptide, time not stated, in the absence of peptide 64±7), the “per cent internalized receptor” value is 6±9 per cent. Also, in the assay with human insulin receptor, the “effect on insulin receptor internalization (in words)” value is recorded as “does not affect insulin receptor internalization”.

Take insulin: the “enhancement of glucose uptake” value stood at 12±4 fold with rat adipose cells (10 nM insulin alone) and 14±3 fold in the assay on rat adipose cells (10 μM insulin alone).

(Values after patent publication US6346390B1, “Receptor derived peptides involved in modulation of response to ligand binding” (Receptron, Inc., priority 1996, dated 2002).)
